Assay results as given in ChEMBL document CHEMBL4270481, “ALK5 kinase inhibitory activity and synthesis of 2,3,4-substituted 5,5-dimethyl-5,6-dihydro-4H-pyrrolo[1,2-b]pyrazoles” (Eur J Med Chem, 2017).
pIC50: −log10 of the molar value.

Assays:
HeLa = experiment: Cytotoxicity against human HeLa cells assessed as decrease in cell proliferation up to 100 uM after 72 hrs by calcein AM staining-based assay
[1] = target: Dual specificity mitogen-activated protein kinase kinase 1 (Homo sapiens) (UniProt Q02750); experiment: Inhibition of MKK1 (unknown origin) assessed as residual enzyme activity at 1 uM relative to untreated control
[2] = target: Ribosomal protein S6 kinase alpha-1 (Homo sapiens) (UniProt Q15418); experiment: Inhibition of RSK1 (unknown origin) assessed as residual enzyme activity at 1 uM relative to untreated control
[3] = target: RAC-alpha serine/threonine-protein kinase (Homo sapiens) (UniProt P31749); experiment: Inhibition of PKBalpha (unknown origin) assessed as residual enzyme activity at 1 uM relative to untreated control
[4] = target: Calcium/calmodulin-dependent protein kinase kinase 2 (Homo sapiens) (UniProt Q96RR4); experiment: Inhibition of CAMKKbeta (unknown origin) assessed as residual enzyme activity at 1 uM relative to untreated control
[5] = target: Serine/threonine-protein kinase Sgk1 (Homo sapiens) (UniProt O00141); experiment: Inhibition of SGK1 (unknown origin) assessed as residual enzyme activity at 1 uM relative to untreated control
K562 = experiment: Cytotoxicity against human K562 cells assessed as decrease in cell proliferation after 72 hrs by calcein AM staining-based assay; assay type: functional; conditions: K562, 72 h
[6] = target: Receptor tyrosine-protein kinase erbB-4 (Homo sapiens) (UniProt Q15303); experiment: Inhibition of HER4 (unknown origin) assessed as residual enzyme activity at 1 uM relative to untreated control
[7] = target: Proto-oncogene tyrosine-protein kinase Src (Homo sapiens) (UniProt P12931); experiment: Inhibition of SRC (unknown origin) assessed as residual enzyme activity at 1 uM relative to untreated control
[8] = target: Calcium/calmodulin-dependent protein kinase type 1 (Homo sapiens) (UniProt Q14012); experiment: Inhibition of CAMK1 (unknown origin) assessed as residual enzyme activity at 1 uM relative to untreated control
[9] = target: Serine/threonine-protein kinase pim-1 (Homo sapiens) (UniProt P11309); experiment: Inhibition of PIM1 (unknown origin) assessed as residual enzyme activity at 1 uM relative to untreated control
MCF7 = experiment: Cytotoxicity against human MCF7 cells assessed as decrease in cell proliferation after 72 hrs by calcein AM staining-based assay; assay type: functional; conditions: MCF7, 72 h
[10] = target: Eukaryotic elongation factor 2 kinase (Homo sapiens) (UniProt O00418); experiment: Inhibition of EF2K (unknown origin) assessed as residual enzyme activity at 1 uM relative to untreated control
[11] = target: 3-phosphoinositide-dependent protein kinase 1 (Homo sapiens) (UniProt O15530); experiment: Inhibition of PDK1 (unknown origin) assessed as residual enzyme activity at 1 uM relative to untreated control
[12] = target: Tyrosine-protein kinase BTK (Homo sapiens) (UniProt Q06187); experiment: Inhibition of BTK (unknown origin) assessed as residual enzyme activity at 1 uM relative to untreated control
Homo sapiens = organism: Homo sapiens; experiment: Inhibition of PKA (unknown origin) assessed as residual enzyme activity at 1 uM relative to untreated control
[13] = target: Serine/threonine-protein kinase N2 (Homo sapiens) (UniProt Q16513); experiment: Inhibition of PRK2 (unknown origin) assessed as residual enzyme activity at 1 uM relative to untreated control
[14] = target: Tyrosine-protein kinase SYK (Homo sapiens) (UniProt P43405); experiment: Inhibition of SYK (unknown origin) assessed as residual enzyme activity at 1 uM relative to untreated control
[15] = target: Serine/threonine-protein kinase PLK1 (Homo sapiens) (UniProt P53350); experiment: Inhibition of PLK1 (unknown origin) assessed as residual enzyme activity at 1 uM relative to untreated control
[16] = target: Tyrosine-protein kinase Lck (Homo sapiens) (UniProt P06239); experiment: Inhibition of LCK (unknown origin) assessed as residual enzyme activity at 1 uM relative to untreated control
[17] = target: Casein kinase 2 (Homo sapiens) (UniProt P67870+P68400+P19784+Q8NEV1); experiment: Inhibition of CK2 (unknown origin) assessed as residual enzyme activity at 1 uM relative to untreated control; assay type: protein assay
[18] = target: Cyclin-dependent kinase 2/cyclin E1 (Homo sapiens, UniProt P24941); experiment: Inhibition of human CDK2/cyclin E expressed in Sf9 insect cells using histone H1 as substrate in presence of [gamma-33P]ATP; assay type: cell-based
[19] = target: Serine/threonine-protein kinase Chk2 (Homo sapiens) (UniProt O96017); experiment: Inhibition of CHK2 (unknown origin) assessed as residual enzyme activity at 1 uM relative to untreated control
[20] = target: Mitogen-activated protein kinase 8 (Homo sapiens) (UniProt P45983); experiment: Inhibition of JNK1 (unknown origin) assessed as residual enzyme activity at 1 uM relative to untreated control
[21] = target: Casein kinase I isoform delta (Homo sapiens) (UniProt P48730); experiment: Inhibition of CK1delta (unknown origin) assessed as residual enzyme activity at 1 uM relative to untreated control
[22] = target: Dual specificity tyrosine-phosphorylation-regulated kinase 1A (Homo sapiens) (UniProt Q13627); experiment: Inhibition of DYRK1A (unknown origin) assessed as residual enzyme activity at 1 uM relative to untreated control
[23] = target: Vascular endothelial growth factor receptor (Homo sapiens) (UniProt P17948+P35916+P35968); experiment: Inhibition of VEGFR (unknown origin) assessed as residual enzyme activity at 1 uM relative to untreated control; assay type: protein assay
BJ = experiment: Cytotoxicity against human BJ cells assessed as decrease in cell proliferation up to 100 uM after 72 hrs by calcein AM staining-based assay
[24] = target: Mitogen-activated protein kinase 14 (Homo sapiens) (UniProt Q16539); experiment: Inhibition of p38alpha (unknown origin) assessed as residual enzyme activity at 1 uM relative to untreated control
[25] = target: Protein kinase C alpha type (Homo sapiens) (UniProt P17252); experiment: Inhibition of PKCalpha (unknown origin) assessed as residual enzyme activity at 1 uM relative to untreated control
[26] = target: Serine/threonine-protein kinase D1 (Homo sapiens) (UniProt Q15139); experiment: Inhibition of PKD1 (unknown origin) assessed as residual enzyme activity at 1 uM relative to untreated control

Sequence of Eukaryotic elongation factor 2 kinase (Homo sapiens) (O00418 whole entry): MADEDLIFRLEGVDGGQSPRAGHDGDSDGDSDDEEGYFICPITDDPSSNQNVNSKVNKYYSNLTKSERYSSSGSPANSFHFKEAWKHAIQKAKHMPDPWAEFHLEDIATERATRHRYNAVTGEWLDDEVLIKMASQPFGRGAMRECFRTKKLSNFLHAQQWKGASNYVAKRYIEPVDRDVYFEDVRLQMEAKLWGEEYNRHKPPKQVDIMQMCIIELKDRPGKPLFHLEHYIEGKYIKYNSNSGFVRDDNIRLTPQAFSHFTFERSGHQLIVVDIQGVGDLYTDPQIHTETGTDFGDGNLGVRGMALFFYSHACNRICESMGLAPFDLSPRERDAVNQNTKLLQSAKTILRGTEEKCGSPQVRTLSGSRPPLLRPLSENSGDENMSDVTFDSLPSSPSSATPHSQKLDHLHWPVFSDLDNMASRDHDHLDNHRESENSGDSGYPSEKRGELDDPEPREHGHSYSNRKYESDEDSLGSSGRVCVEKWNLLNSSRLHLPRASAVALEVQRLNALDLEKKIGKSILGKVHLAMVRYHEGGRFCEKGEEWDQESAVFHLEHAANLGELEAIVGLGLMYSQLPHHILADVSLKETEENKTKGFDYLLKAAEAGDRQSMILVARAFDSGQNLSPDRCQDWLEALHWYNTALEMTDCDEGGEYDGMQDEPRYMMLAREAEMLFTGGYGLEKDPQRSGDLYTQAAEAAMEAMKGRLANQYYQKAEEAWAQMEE
Sequence of Serine/threonine-protein kinase N2 (Homo sapiens) (Q16513 whole entry, looked up): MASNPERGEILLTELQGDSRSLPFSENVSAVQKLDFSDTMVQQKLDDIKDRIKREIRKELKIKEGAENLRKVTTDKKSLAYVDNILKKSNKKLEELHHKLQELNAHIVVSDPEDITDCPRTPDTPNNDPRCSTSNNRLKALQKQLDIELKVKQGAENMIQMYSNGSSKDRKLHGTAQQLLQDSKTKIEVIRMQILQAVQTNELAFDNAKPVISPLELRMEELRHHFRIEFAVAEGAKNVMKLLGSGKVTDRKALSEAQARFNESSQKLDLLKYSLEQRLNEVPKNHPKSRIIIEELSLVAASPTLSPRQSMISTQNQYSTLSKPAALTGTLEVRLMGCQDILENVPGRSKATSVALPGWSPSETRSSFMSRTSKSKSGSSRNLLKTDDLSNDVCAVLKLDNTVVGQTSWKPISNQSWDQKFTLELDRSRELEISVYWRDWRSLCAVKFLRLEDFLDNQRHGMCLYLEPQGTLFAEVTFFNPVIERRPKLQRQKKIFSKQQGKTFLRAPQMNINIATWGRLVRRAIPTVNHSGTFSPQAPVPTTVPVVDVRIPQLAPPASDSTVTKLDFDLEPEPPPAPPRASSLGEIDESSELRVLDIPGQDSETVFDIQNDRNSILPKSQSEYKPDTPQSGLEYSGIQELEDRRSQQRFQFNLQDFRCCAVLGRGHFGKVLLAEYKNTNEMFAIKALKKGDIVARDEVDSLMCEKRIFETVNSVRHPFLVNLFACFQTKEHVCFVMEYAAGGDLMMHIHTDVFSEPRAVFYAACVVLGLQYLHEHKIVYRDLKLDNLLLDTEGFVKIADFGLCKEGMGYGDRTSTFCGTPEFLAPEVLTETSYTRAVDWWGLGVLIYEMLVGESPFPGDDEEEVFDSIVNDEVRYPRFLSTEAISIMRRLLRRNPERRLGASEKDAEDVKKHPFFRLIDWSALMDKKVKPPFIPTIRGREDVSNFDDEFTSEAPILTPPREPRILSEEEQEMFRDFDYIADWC
Sequence of Calcium/calmodulin-dependent protein kinase kinase 2 (Homo sapiens) (Q96RR4 2-588 limits assumed): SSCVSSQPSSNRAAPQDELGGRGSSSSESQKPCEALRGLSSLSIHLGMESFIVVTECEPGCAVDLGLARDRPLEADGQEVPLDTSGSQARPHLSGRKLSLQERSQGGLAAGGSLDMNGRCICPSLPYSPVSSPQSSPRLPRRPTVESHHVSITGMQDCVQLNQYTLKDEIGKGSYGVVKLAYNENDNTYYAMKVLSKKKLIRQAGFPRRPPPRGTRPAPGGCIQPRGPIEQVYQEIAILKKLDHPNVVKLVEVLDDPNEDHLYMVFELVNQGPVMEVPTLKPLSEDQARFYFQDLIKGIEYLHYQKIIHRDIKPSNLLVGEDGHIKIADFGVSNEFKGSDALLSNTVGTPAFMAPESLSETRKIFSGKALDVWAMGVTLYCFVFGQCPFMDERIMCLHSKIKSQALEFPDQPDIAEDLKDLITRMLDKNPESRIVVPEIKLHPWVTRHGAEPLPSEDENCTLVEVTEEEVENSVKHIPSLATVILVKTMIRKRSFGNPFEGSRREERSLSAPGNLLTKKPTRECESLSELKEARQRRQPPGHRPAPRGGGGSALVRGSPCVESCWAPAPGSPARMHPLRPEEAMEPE
Sequence of Mitogen-activated protein kinase 8 (Homo sapiens) (P45983 whole entry, canonical isoform): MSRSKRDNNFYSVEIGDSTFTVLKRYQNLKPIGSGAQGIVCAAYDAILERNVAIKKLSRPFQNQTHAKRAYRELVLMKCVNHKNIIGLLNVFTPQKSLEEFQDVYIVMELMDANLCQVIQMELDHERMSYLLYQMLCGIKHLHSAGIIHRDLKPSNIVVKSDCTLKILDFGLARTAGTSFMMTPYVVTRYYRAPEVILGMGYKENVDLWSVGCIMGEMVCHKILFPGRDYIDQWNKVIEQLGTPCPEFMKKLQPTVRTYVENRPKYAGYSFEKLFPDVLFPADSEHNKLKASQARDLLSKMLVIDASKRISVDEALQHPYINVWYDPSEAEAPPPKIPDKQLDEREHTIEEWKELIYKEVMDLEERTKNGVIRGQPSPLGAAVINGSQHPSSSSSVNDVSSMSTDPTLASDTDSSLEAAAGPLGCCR
Sequence of Proto-oncogene tyrosine-protein kinase Src (Homo sapiens) (P12931 2-536 limits assumed): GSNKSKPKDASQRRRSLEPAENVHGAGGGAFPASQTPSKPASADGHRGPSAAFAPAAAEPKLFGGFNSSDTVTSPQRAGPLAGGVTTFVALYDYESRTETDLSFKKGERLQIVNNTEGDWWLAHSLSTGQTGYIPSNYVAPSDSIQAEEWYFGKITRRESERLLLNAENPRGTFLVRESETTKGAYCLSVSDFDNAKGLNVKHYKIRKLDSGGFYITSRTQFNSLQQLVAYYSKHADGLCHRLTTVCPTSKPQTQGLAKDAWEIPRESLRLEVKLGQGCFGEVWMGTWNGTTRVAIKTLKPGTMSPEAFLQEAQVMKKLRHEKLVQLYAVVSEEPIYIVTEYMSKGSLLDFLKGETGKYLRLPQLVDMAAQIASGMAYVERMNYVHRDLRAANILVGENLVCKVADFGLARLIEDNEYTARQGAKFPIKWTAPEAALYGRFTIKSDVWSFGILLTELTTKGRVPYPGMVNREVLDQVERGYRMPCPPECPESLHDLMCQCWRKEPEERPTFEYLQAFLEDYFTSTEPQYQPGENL
Sequence of Calcium/calmodulin-dependent protein kinase type 1 (Homo sapiens) (Q14012 whole entry, looked up): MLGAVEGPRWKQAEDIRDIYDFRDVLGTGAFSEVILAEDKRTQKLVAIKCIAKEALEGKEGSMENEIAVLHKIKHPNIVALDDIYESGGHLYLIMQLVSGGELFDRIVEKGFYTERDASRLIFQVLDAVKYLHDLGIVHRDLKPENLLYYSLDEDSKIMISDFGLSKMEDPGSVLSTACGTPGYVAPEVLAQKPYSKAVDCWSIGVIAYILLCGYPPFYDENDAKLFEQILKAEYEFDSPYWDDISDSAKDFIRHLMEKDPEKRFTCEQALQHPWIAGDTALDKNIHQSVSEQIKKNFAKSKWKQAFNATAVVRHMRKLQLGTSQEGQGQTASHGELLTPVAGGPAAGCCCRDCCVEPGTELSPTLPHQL
Sequence of Casein kinase I isoform delta (Homo sapiens) (P48730 whole entry, looked up, canonical isoform): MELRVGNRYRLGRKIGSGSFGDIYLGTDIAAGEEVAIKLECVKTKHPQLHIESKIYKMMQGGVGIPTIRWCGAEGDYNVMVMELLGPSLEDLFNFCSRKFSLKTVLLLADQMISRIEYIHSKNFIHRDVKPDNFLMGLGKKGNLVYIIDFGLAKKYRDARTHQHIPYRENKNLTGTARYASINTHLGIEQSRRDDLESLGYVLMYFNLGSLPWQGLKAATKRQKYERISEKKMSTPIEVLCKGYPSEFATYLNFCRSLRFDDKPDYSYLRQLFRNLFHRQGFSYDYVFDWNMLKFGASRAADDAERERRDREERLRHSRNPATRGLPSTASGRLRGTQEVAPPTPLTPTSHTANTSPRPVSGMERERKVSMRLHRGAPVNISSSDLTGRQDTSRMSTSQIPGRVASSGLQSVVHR

Cc1cccc(-c2nn3c(c2-c2ccc(O)cc2)C(C)C(C)(C)C3)n1 (stereo unspecified)
Non-Toxic: Activity (HeLa) | Activity (BJ)
> 80%: Activity [1] | Activity [3] | Activity [4] | Activity [6] | Activity [7] | Activity [8] | Activity [9] | Activity [10] | Activity [11] | Activity [12] | Activity [13] | Activity [14] | Activity [15] | Activity [16] | Activity [19] | Activity [20] | Activity [22] | Activity [25]
12%: Activity [26]
9%: Activity [24]
60 to 80%: Activity [2] | Activity [5] | Activity (Homo sapiens) | Activity [17] | Activity [23]
34%: Activity [21]
< 4.00: pIC50 (K562) | pIC50 (MCF7) | pIC50 [18]
